{
  "source": "patent US20130281544A1",
  "about": "“HEPATOPROTECTANT ACTIVITY OF GARCINOL” (priority 2010, published 2013)",
  "tested_on": "carbon tetrachloride induced liver damage in rats",
  "test": "Bilirubin and serum enzymes ALT, AST, ALP in carbon tetrachloride induced liver damage",
  "format": "in vivo, Male Wistar Rats",
  "conditions": "CCl4; for ALP percent change / ALT percent change / AST percent change / Bilirubin percent change / ALP / ALT / AST / Bilirubin: serum; for ALP / ALT / AST / Bilirubin: Mean ± SE",
  "description": "Doses of Garcinol (GC) used for the study: 1.25, 2.5, 5, 10 mg/kg p.o.\nStandard drug: Silymarin (50 mg/kg) p.o.\nLiver injury was induced by administration of carbon tetrachloride (CCl4) mixed with liquid paraffin (5 fold dilution). Animals were given single dose of CCl4 at 1 ml/kg, p.o. followed by the administration of garcinol (Table 2). [(i) Bramanti G, Murmann W, Pierini P and Comporti M (1978). Effect of cicloxilic acid on CCl4-induced liver injury. Drug Research 28: 1112-1217. (ii) B Singh, A K Saxena, B K Chandan, K K Anand (1998). Hepatoprotective activity of Verbenalin on experimental liver damage in rodents. Fitoterapia LXIX 2: 135-140. (iii) B. K. Chandan, A. K. Sharma, K. K. Anand Boerhaavia difiusa: A study of its hepatoprotective activity. Journal of Ethnopharmacology, Volume 31, Issue 3, March 1991, Pages 299-307].\nBlood was collected from the retro-orbital plexus of experimental animals and no anti-coagulant was added. Blood was made to stand at room temperature for 1 hour. It was then centrifuged and clear serum was separated. The serum was then stored for analysis. Reference: (Magari et al., 2004).\n(ASPARTATE AMINOTRANSFERASE and ALANINE AMINOTRANSFERASE), Reference: Ritman S, Frankel S, (1957). A colorimeteric method for the determination of serum glutamic oxaloacetic and glutamic pyruvic transaminases. American Journal of Clinical Pathology; 28: 56-63.\n0.2 ml of serum, collected from test and control samples, was mixed with 1.0 ml of buffer solution and incubated for 60 min at 37° C. in a water bath. After the addition of 1.0 ml of chromogen solution, the samples were kept at room temperature for 20 minutes for the reaction to proceed and 10 ml NaOH was added. The optical density was red at 546 nm after 5 min. To the blank, serum was added after the addition of chromogen solution.\n(ALKALINE PHOSPHATASE), Reference: Klaus Walter and Schutt C. (1974). Acid and alkaline phosphatase in serum. In: Methods of Enzymatic Analysis. Eds. Hans Ulrich Bergmeyer, Verlag ChemieWeinheim, Academic press, Inc. New York, 2nd Edition, Vol. 2, pp. 855-64.\nAlkaline phosphatase activity measurement is based on the ability of the enzyme to hydrolyze p-nitrophenol phosphate under alkaline conditions. The cleaved product p-nitrophenol is yellow in alkaline solution and is measured at 400-420 nm (Klaus and Schutt, 1974). 2.0 ml of buffered substrate was taken in the tubes ‘Test’ ‘Control’ and ‘Blank’ followed by addition of serum and distilled water (0.1 ml) in ‘Test’ and ‘Blank’ respectively and incubated in a water bath for 30 minutes at 25° C. After incubation sodium hydroxide was added (0.25 N, 2 ml) to all the tubes, which was followed by serum (0.1 ml) to the tubes marked ‘Control’. The yellow colour formed was measured spectrophotometrically against blank at 410 nm.\n[BILIRUBIN (BRBN)], Reference: Malloy H T and Evelyn K A (1937). The determination of bilirubin with photoelectric colorimeter. Journal of Biological Chemistry 119: 481-490.\nSerum bilirubin was estimated by the method of Malloy and Evelyn (1937). In the two sets of test tubes marked ‘Test’ and ‘Control’, serum (0.2 ml) and distilled water (1.8 ml) were added. To the tubes marked ‘Test’ and ‘Standard’ diazo reagent (0.5 ml) was added. To the test tubes marked ‘Control’ and ‘Blank’ diazo blank (0.5 ml) was added. Finally methanol (2.5 ml) was added into each test tube. The tubes were mixed and allowed to stand for 30 minutes in dark. The tubes were read after 10 minutes at 540 nm.",
  "data": [
    {"smiles": "C=C(C)[C@@H](CC=C(C)C)C[C@@]12C[C@@H](CC=C(C)C)C(C)(C)[C@@](CC=C(C)C)(C(=O)C(C(=O)c3ccc(O)c(O)c3)=C1O)C2=O", "note": "[Garcinol]", "values": [
      {"measurement": "Average Protection", "setting": "1.25 mg/kg p.o.", "value": 12.63, "unit": "%"},
      {"measurement": "Average Protection", "setting": "2.50 mg/kg p.o.", "value": 24.99, "unit": "%"},
      {"measurement": "Average Protection", "setting": "5.00 mg/kg p.o.", "value": 38.07, "unit": "%"},
      {"measurement": "Average Protection", "setting": "10.00 mg/kg p.o.", "value": 36.87, "unit": "%"},
      {"measurement": "ALP percent change", "setting": "1.25 mg/kg p.o.", "value": "(10.79) %"},
      {"measurement": "ALT percent change", "setting": "1.25 mg/kg p.o.", "value": "(12.84) %"},
      {"measurement": "AST percent change", "setting": "1.25 mg/kg p.o.", "value": "(14.95) %"},
      {"measurement": "Bilirubin percent change", "setting": "1.25 mg/kg p.o.", "value": "(11.96) %"},
      {"measurement": "ALP", "setting": "1.25 mg/kg p.o.", "value": "78.49 ± 6.58", "unit": "μmol/min/lt"},
      {"measurement": "ALT", "setting": "1.25 mg/kg p.o.", "value": "1272.50 ± 109.19", "unit": "μmol/min/lt"},
      {"measurement": "AST", "setting": "1.25 mg/kg p.o.", "value": "746.81 ± 36.93", "unit": "μmol/min/lt"},
      {"measurement": "Bilirubin", "setting": "1.25 mg/kg p.o.", "value": "1.03 ± 0.04", "unit": "mg %"},
      {"measurement": "ALP percent change", "setting": "2.50 mg/kg p.o.", "value": "(20.08) %"},
      {"measurement": "ALT percent change", "setting": "2.50 mg/kg p.o.", "value": "(29.65) %"},
      {"measurement": "AST percent change", "setting": "2.50 mg/kg p.o.", "value": "(26.32) %"},
      {"measurement": "Bilirubin percent change", "setting": "2.50 mg/kg p.o.", "value": "(23.93) %"},
      {"measurement": "ALP", "setting": "2.50 mg/kg p.o.", "value": "70.32 ± 3.89", "unit": "μmol/min/lt"},
      {"measurement": "ALT", "setting": "2.50 mg/kg p.o.", "value": "1027.07 ± 68.26", "unit": "μmol/min/lt"},
      {"measurement": "AST", "setting": "2.50 mg/kg p.o.", "value": "646.90 ± 50.53", "unit": "μmol/min/lt"},
      {"measurement": "Bilirubin", "setting": "2.50 mg/kg p.o.", "value": "0.89 ± 0.05", "unit": "mg %"},
      {"measurement": "ALP percent change", "setting": "5.00 mg/kg p.o.", "value": "(32.73) %"},
      {"measurement": "ALT percent change", "setting": "5.00 mg/kg p.o.", "value": "(43.24) %"},
      {"measurement": "AST percent change", "setting": "5.00 mg/kg p.o.", "value": "(42.98) %"},
      {"measurement": "Bilirubin percent change", "setting": "5.00 mg/kg p.o.", "value": "(33.33) %"},
      {"measurement": "ALP", "setting": "5.00 mg/kg p.o.", "value": "59.19 ± 4.45", "unit": "μmol/min/lt"},
      {"measurement": "ALT", "setting": "5.00 mg/kg p.o.", "value": "828.59 ± 46.56", "unit": "μmol/min/lt"},
      {"measurement": "AST", "setting": "5.00 mg/kg p.o.", "value": "500.66 ± 49.22", "unit": "μmol/min/lt"},
      {"measurement": "Bilirubin", "setting": "5.00 mg/kg p.o.", "value": "0.78 ± 0.04", "unit": "mg %"},
      {"measurement": "ALP percent change", "setting": "10.00 mg/kg p.o.", "value": "(32.15) %"},
      {"measurement": "ALT percent change", "setting": "10.00 mg/kg p.o.", "value": "(38.94) %"},
      {"measurement": "AST percent change", "setting": "10.00 mg/kg p.o.", "value": "(40.50) %"},
      {"measurement": "Bilirubin percent change", "setting": "10.00 mg/kg p.o.", "value": "(35.89) %"},
      {"measurement": "ALP", "setting": "10.00 mg/kg p.o.", "value": "59.70 ± 3.69", "unit": "μmol/min/lt"},
      {"measurement": "ALT", "setting": "10.00 mg/kg p.o.", "value": "891.36 ± 45.72", "unit": "μmol/min/lt"},
      {"measurement": "AST", "setting": "10.00 mg/kg p.o.", "value": "522.43 ± 57.50", "unit": "μmol/min/lt"},
      {"measurement": "Bilirubin", "setting": "10.00 mg/kg p.o.", "value": "0.75 ± 0.04", "unit": "mg %"}
    ]}
  ]
}
